For one data set, the target named is T1, P-gp (Mus musculus, UniProt P21447).
T1 construct: effectively excreted through P-gp from the brain to vessels; from tissue; host or cells: brain / blood-brain barrier of living C57BL/6J mice
Nature of the data set: Potential for drug-drug interactions through P-gp in vivo (Kp with/without cyclosporin A). The following applies: mice, Kp with versus without cyclosporin A (20 mg/kg). The method, then: To examine the potential for drug-drug interactions through P-gp in vivo, the Kp values of compounds of this invention with (KpCSA) or without (KpCont.) cyclosporin A (20 mg/kg), a P-gp inhibitor, were calculated. The KpCSA value of Compound (I-72) was 1.14, and the calculated KpCSA KpCont. ratio was 0.9.
On the other hand the potential for drug-drug interactions through P-pg of amide compound B which has similar structure of Compound (1-72) was also examined in mice. The KpCont. and KpCSA were 0.04 and 0.84, respectively.

The target of a further data set is T2, mouse NPY Y5 receptor (Mus musculus, UniProt O70342).
T2 construct: expressed in transfected cells
T2 sequence (O70342 1-466): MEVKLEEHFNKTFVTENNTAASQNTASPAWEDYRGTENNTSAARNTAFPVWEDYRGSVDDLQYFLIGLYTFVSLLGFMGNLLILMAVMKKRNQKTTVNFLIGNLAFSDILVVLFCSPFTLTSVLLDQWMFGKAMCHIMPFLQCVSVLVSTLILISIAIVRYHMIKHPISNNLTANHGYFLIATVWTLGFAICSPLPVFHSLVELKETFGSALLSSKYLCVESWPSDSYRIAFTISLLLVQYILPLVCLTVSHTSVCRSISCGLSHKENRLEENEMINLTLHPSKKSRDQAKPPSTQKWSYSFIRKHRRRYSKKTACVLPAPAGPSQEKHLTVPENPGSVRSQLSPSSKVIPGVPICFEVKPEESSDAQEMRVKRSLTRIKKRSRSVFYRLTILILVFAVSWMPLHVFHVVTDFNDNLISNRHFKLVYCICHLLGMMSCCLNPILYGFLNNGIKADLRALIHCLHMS
Nature of the data set: Affinity for mouse NPY Y5 receptor ([125I] peptide YY binding, CHO cell membranes). The following applies: CHO membranes expressing mouse NPY Y5 receptor, [125I] peptide YY 60 pM. The text has this: cDNA sequence encoding a mouse NPY Y5 receptor (Biochim. Biophys. Acta 1328:83-89, 1997) was cloned in a vector (pME18S, Takebe et al. Mol. Cell. Biol. 8, 466-472). The obtained expression vector was transfected into CHO cells as a host by using Lipofect AMINE reagent (Trademark, Gico BRL Co., Ltd.) according to the instruction manual. The cells that stably express mouse NPY Y5 receptor were obtained.
The membranes prepared from the CHO cells expressing mouse NPY Y5 receptor, the compound of this invention and 30,000 cpm [^125I] peptide YY (60 pM of final concentration: Amersham) were incubated in the assay buffer (20 mM HEPES-Hanks buffer containing 0.1% bovine serum albumin, pH 7.4) at 25° C. for 2 hours, and then the membrane was filtered from the mixture through a glassfilter (GF/C) presoaked with 1% polyethyleneimine. After washing with 50 mM Tris-HCl buffer (pH 7.4), radioactivity retained on the filters was quantified with a gamma counter.
Nonspecific binding was defined as the amount of radioactivity bound to the membranes after incubation in the presence of 200 nM of peptide YY. The 50% inhibitory concentration of the test compound against the specific peptide YY binding (IC50 value) was calculated (Inui, A. et al. Endocrinology 131, 2090-2096 (1992)).

Data set [1] in a line: Suppression of body weight gain in high-fat diet-induced obese mice. The data set is classed as in vivo, C57BL/6J mice. The following applies: 6 mg/kg b.i.d. for 3 weeks, versus vehicle. The method, then:
Prior to administration of the compounds of this invention, male C57BL/6J mice were given a high-fat diet to induce obese. The high-fat diet-induced obese mice (13-14 week old, body weight 28-33 g) were dosed with 0.5% hydroxypropylmethyl cellulose solution (vehicle, Shin-Etsu Chemical Co., Ltd) or the compounds of this invention suspended in the 0.5% hydroxypropylmethyl cellulose solution twice a day (b.i.d.) for 3 weeks with the same diet. The changes in body weight were monitored daily.

For the next data set, the target named is T3, NPY Y5 receptor (Mus musculus, UniProt O70342).
T3 construct: from tissue; host or cells: brain of living male C57BL/6J mice
T3 sequence (O70342 1-466): T2 sequence (O70342 1-466)
The experiment in a line: Inhibition of Y5 agonist-induced food intake in mice. The data set is classed as in vivo, C57BL/6J mice. To be noted: 4 hours after dosing. The method, then: Under diethylether anesthesia the skull of male C57BL/6J mice (12-14 week old, 25-30 g) was exposed by making an incision about 1-cm long from external occipital crest to nasal dorsum, and then drilled in the 1-mm lateral position to the left following 1-mm posterior from bregma. After recovery from anesthesia mice were dosed with either 0.5% hydroxypropylmethyl cellulose solution (vehicle, Shin-Etsu Chemical Co., Ltd) or the compounds of this invention suspended in the 0.5% hydroxypropylmethyl cellulose solution. At one hour after the treatment, each animal received saline or a NPY Y5 receptor specific agonist, [cPP^1-7, NPY^19-23, Ala^31, Aib^32, Gln^34]-hPancreatic Polypeptide (0.1 nmol/1.5 μL saline/mouse) through the skull opening using a canula. Residual food was measured at 2 and 4 hours after the treatment. The inhibition ratio of Y5 agonist-induced food intake by the compounds was calculated as follows; inhibition ratio (%)=[1−(food intake (g) by the compound treated and Y5 agonist received mice−food intake (g) by the vehicle treated and saline received mice)/(food intake (g) by the vehicle treated and Y5 agonist received mice−food intake (g) by the vehicle treated and saline received mice)]×100.

Setting [2] is: rows without asterisk (6 mg/kg per text).

T1 sequence (P21447 whole entry): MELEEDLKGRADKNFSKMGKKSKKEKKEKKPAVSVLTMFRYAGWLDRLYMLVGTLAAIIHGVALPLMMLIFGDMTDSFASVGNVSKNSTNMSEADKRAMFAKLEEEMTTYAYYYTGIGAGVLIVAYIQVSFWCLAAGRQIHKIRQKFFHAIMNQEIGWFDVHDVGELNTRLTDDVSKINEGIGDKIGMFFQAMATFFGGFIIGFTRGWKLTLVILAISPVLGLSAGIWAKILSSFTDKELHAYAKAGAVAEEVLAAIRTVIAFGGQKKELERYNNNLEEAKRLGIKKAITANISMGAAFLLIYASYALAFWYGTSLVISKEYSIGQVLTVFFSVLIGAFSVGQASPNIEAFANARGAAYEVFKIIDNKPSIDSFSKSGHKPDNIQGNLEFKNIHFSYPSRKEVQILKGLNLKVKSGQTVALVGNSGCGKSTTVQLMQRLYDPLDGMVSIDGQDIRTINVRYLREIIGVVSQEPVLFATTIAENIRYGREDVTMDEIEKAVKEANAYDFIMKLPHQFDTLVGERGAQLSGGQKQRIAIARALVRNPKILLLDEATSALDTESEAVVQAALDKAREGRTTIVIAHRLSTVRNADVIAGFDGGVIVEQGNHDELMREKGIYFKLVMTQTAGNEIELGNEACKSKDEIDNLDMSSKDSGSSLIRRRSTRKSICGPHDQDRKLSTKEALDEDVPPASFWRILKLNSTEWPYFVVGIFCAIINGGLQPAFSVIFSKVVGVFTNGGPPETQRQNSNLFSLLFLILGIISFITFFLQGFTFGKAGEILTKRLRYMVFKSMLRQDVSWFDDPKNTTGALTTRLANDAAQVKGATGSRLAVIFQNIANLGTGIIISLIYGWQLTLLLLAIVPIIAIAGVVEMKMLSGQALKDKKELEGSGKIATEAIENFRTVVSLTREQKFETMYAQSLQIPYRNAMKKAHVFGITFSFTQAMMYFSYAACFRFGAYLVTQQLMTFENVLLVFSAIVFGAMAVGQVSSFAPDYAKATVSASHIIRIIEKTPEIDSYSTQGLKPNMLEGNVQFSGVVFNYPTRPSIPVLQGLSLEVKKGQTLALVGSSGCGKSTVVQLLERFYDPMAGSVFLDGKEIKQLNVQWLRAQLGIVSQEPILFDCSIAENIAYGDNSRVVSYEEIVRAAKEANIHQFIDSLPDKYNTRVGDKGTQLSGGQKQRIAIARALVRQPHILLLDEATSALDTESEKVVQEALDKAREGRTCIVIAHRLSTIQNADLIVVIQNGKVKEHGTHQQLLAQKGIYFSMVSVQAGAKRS

Turning to `C[C@@H]1CN(c2ccc(NC(=O)[C@H]3CC[C@H](NS(=O)(=O)C(C)(C)C)CC3)cc2)C[C@H](C)O1` [B, reference compound], on P-gp, the KpCSA/KpCont. ratio is reported as 20.5. On to `C[C@@H]1CN(c2ccc(NC[C@H]3CC[C@H](NS(=O)(=O)C(C)(C)C)CC3)cc2)C[C@H](C)O1` [Compound I-72], for which the KpCSA/KpCont. ratio on P-gp amounted to 0.9. One may read the IC50 as the concentration that gives 50% inhibition. Lower therefore signals greater potency. On mouse NPY Y5 receptor, `CC1CC(C)CN(c2cccc(NC[C@H]3CC[C@H](NS(=O)(=O)C(C)(C)C)CC3)c2)C1` (stereo partly shown) [Ii-1] displayed an IC50 of 0.1 nM. On the same count and under the same terms, the same measure for `CCCn1c(=O)oc2cc(NC[C@H]3CC[C@H](NS(=O)(=O)CC)CC3)ccc21` [Ii-16]: 1.2 nM. Molecule `CCS(=O)(=O)N[C@H]1CC[C@H](CNc2ccc(S(=O)(=O)c3ccc(F)cc3)cc2)CC1` [Ii-34] yielded an IC50 at mouse NPY Y5 receptor of 11 nM. Against the preceding molecule, the IC50 is about 9.2-fold higher.

As to `Cn1c(=O)oc2cc(NC[C@H]3CC[C@H](NS(=O)(=O)C(C)(C)C)CC3)cc(F)c21` [Ii-45], the Body weight gain entry in data set [1] was “suppresses Body Weight Gain”. For the same molecule, the “Inhibition ratio of Y5 agonist-induced food intake” value (shortened to “Inhibition ratio”) at NPY Y5 receptor (setting [2]) was 76.2%.

Take `CC(C)S(=O)(=O)N[C@H]1CC[C@H](CNc2cc(F)cc(N3CCOCC3)c2)CC1` [Ii-55]: the “Inhibition ratio” value at NPY Y5 receptor (setting [2]) was found to be 64.3%. Consider `CC(C)S(=O)(=O)NC[C@H]1CC[C@H](Nc2ccc(C(F)(F)F)cn2)CC1` [Ij-1], for which, at mouse NPY Y5 receptor, the IC50 worked out at 0.7 nM.

Consider `CCS(=O)(=O)NC[C@H]1CC[C@H](Nc2ccc(-c3ccccc3)cn2)CC1` [Ij-4], for which the “Inhibition ratio” value on NPY Y5 receptor (setting [2]) was found to be 88.2%.

As to `CC(C)S(=O)(=O)NC[C@H]1CC[C@H](Nc2ccc(OC3CCCC3)nn2)CC1` [Ij-52], the IC50 on mouse NPY Y5 receptor amounted to 0.99 nM. Still for that read-out and setting: the same measure for `CC(C)(C)S(=O)(=O)NC[C@H]1CC[C@H](Nc2ccc3ccccc3n2)CC1` [Ij-59]: 2.5 nM. At mouse NPY Y5 receptor, `CC(C)(C)S(=O)(=O)NC[C@H]1CC[C@H](Nc2nc3ccc(C(F)(F)F)cc3s2)CC1` [Ij-66] returned an IC50 of 0.39 nM. Take `CC(C)(C)S(=O)(=O)NC[C@H]1CC[C@H](Nc2ccn(-c3ccccc3F)n2)CC1` [Ij-110]: the “Inhibition ratio” value on NPY Y5 receptor (setting [2]) worked out at 90.3%.

`CCS(=O)(=O)NC[C@H]1CC[C@H](Nc2ccn(-c3ccccc3F)n2)CC1` [Ij-112]: the Body weight gain entry in data set [1] was “suppresses Body Weight Gain”. In turn, `CCS(=O)(=O)NC[C@H]1CC[C@H](Nc2nc3ccccc3s2)CC1` [Ij-149] registered an IC50 at mouse NPY Y5 receptor of 0.92 nM. Besides, the “Inhibition ratio” value at NPY Y5 receptor (setting [2]) is recorded as 62.6%. As for `CCS(=O)(=O)NC[C@H]1CC[C@H](Nc2nc3ccccc3o2)CC1` [Ij-150], the IC50 on mouse NPY Y5 receptor came to 4.66 nM. Also, at NPY Y5 receptor (setting [2]), the “Inhibition ratio” value is given as 25.3%. Turning to `CC(C)S(=O)(=O)NC[C@H]1CC[C@H](Nc2nc3cc(F)ccc3s2)CC1` [Ij-151], the IC50 at mouse NPY Y5 receptor is 0.12 nM. Besides, at NPY Y5 receptor (*Dose: 1.5 mg/kg), the “Inhibition ratio” value is listed as 78.4%*. The like results for `CC(C)S(=O)(=O)NC[C@H]1CC[C@H](Nc2nc3ccc(F)cc3s2)CC1` [Ij-152] were, in that order, 0.35 nM and 62.6%*.

In turn, `CC(C)S(=O)(=O)NC[C@H]1CC[C@H](Nc2nc3cccc(F)c3s2)CC1` [Ij-153] yielded an IC50 on mouse NPY Y5 receptor of 0.12 nM. In addition, on NPY Y5 receptor (setting [2]), the “Inhibition ratio” value worked out at 73.0%. The corresponding values for `CC(C)S(=O)(=O)NC[C@H]1CC[C@H](Nc2nc3cc(Cl)ccc3s2)CC1` [Ij-154] are 0.17 nM and 81.3%.

On mouse NPY Y5 receptor, `CC(C)S(=O)(=O)NC[C@H]1CC[C@H](Nc2nc3cc(F)ccc3o2)CC1` [Ij-155] returned an IC50 of 0.88 nM. Besides, on NPY Y5 receptor (*Dose: 1.5 mg/kg), the “Inhibition ratio” value is 56.1%*. On mouse NPY Y5 receptor, `CC(C)S(=O)(=O)NC[C@H]1CC[C@H](Nc2nc3ccc(F)cc3o2)CC1` [Ij-156] came in with an IC50 of 0.68 nM. Moreover, on NPY Y5 receptor (**Dose: 12.5 mg/kg), the “Inhibition ratio” value was found to be 90.4%**.

Consider `CC(C)S(=O)(=O)NC[C@H]1CC[C@H](Nc2ccn(-c3ccccc3Cl)n2)CC1` [Ij-157], for which the half-maximal inhibitory concentration (IC50) at mouse NPY Y5 receptor is 0.16 nM. That is a sub-nanomolar value.

As to `CC(C)(C)S(=O)(=O)NC[C@H]1CC[C@H](Nc2nc3cc(F)ccc3o2)CC1` [Ij-158], the IC50 at mouse NPY Y5 receptor was 0.85 nM. Moreover, on NPY Y5 receptor (setting [2]), the “Inhibition ratio” value amounted to 70.5%. The corresponding values for `CC(C)(C)S(=O)(=O)NC[C@H]1CC[C@H](Nc2nc3ccc(F)cc3o2)CC1` [Ij-159] are 0.6 nM and 83.2%. `CCC(C)S(=O)(=O)NC[C@H]1CC[C@H](Nc2nc3cc(F)ccc3o2)CC1` (stereo partly shown) [Ij-160] showed an IC50 on mouse NPY Y5 receptor of 0.55 nM. Moreover, at NPY Y5 receptor (*Dose: 1.5 mg/kg), the “Inhibition ratio” value was determined as 36.6%*.

`CCC(C)S(=O)(=O)NC[C@H]1CC[C@H](Nc2nc3ccc(F)cc3o2)CC1` (stereo partly shown) [Ij-161] had an IC50 on mouse NPY Y5 receptor of 0.69 nM. The “Inhibition ratio” value on NPY Y5 receptor (*Dose: 1.5 mg/kg) worked out at 15.8%*.
